From BindingDB's records for patent US20230365554 (The Broad Institute, 2023)

Experiments:
[1] = molecular target: T1, Casein kinase I isoform alpha (Homo sapiens, UniProt P48729); experiment: CSNK1A1 Assay 2
Procedure: CSNK1A1-inhibitory activity of compounds of the present invention in presence of 1 μM adenosine-tri-phosphate (ATP) was quantified employing the CSNK1A1 assay as described in the following paragraphs. In essence, the enzyme activity is measured by quantification of the adenosine-di-phosphate (ADP), which is generated as a co-product of the enzyme reaction, via the ADP-Glo Kinase Assay kit from the company Promega. This detection system works as follows: In a first step the ATP not consumed in the kinase reaction is quantitatively converted to cAMP employing an adenylate cyclase ( ADP-Glo-reagent ), then the adenylate cyclase is stopped and the ADP generated in the kinase reaction converted to ATP which generates in a luciferase-based reaction a glow-luminescence signal ( Kinase Detection Reagent ). Recombinant fusion protein of N-terminal Glutathion-S-Transferase (GST) and full-length human CSNK1A1, expressed by baculovirus infected insect cells and purified via Glutathion affinity chromatography, was purchased from Life Technologies (product no. PV4174) and used as enzyme. As substrate for the kinase reaction the biotinylated peptide biotin-Ahx-KRRRAL-pS-VASLPGL (C-terminus in amide form) was used which can be purchased e.g. from the company Biosyntan (Berlin-Buch, Germany).For the assay 50 nl of a 100 fold concentrated solution of the test compound in DMSO was pipetted into a white 1536-well microtiter plate (Greiner Bio-One, Frickenhausen, Germany), 2 μL of a solution of CSNK1A1 in aqueous assay buffer [50 mM HEPES pH 7.5, 10% (v/v) glycerol, 10 mM MgCl2, 50 mM NaCl, 1 mM dithiothreitol, 0.01% (w/v) bovine serum albumin, 0.01% (v/v) Triton X-100] were added and the mixture was incubated for 15 min at 22 C. to allow pre-binding of the test compounds to the enzyme before the start of the kinase reaction. […]

[2] = molecular target: Casein kinase I isoform delta (Homo sapiens, UniProt P48730); experiment: CSNK1D Assay
Procedure: CSNK1D-inhibitory activity of compounds of the present invention in presence of 1 μM adenosine-tri-phosphate (ATP) was quantified employing the CSNK1D assay as described in the following paragraphs. In essence, the enzyme activity is measured by quantification of the adenosine-di-phosphate (ADP), which is generated as a co-product of the enzyme reaction, via the ADP-Glo Kinase Assay kit from the company Promega. This detection system works as follows: In a first step the ATP not consumed in the kinase reaction is quantitatively converted to cAMP employing an adenylate cyclase ( ADP-Glo-reagent ), then the adenylate cyclase is stopped and the ADP generated in the kinase reaction converted to ATP which generates in a luciferase-based reaction a glow-luminescence signal ( Kinase Detection Reagent ).Recombinant fusion protein of N-terminal Glutathion-S-Transferase (GST) and full-length human CSNK1D, expressed by baculovirus infected insect cells and purified via Glutathion affinity chromatography, was purchased from Life Technologies (product no. PV3665) and used as enzyme. […]

[3] = molecular target: T1, Casein kinase I isoform alpha; experiment: CSNK1A1 Assay 1
Procedure: CSNK1A1-inhibitory activity of compounds of the present invention in presence of 1 μM adenosine-tri-phosphate (ATP) was quantified employing the CSNK1A1 assay as described in the following paragraphs. In essence, the enzyme activity is measured by quantification of the adenosine-di-phosphate (ADP), which is generated as a co-product of the enzyme reaction, via the ADP-Glo Kinase Assay kit from the company Promega. This detection system works as follows: In a first step the ATP not consumed in the kinase reaction is quantitatively converted to cAMP employing an adenylate cyclase ( ADP-Glo-reagent ), then the adenylate cyclase is stopped and the ADP generated in the kinase reaction converted to ATP which generates in a luciferase-based reaction a glow-luminescence signal ( Kinase Detection Reagent ).Recombinant fusion protein of N-terminal Glutathion-S-Transferase (GST) and full-length human CSNK1A1, expressed by baculovirus infected insect cells and purified via Glutathion affinity chromatography, was purchased from Life Technologies (product no. PV4174) and used as enzyme. […] Subsequently 2.5 μL of the kinase detection reagent (1.2 fold more concentrated than recommended by the producer) were added, the resulting mixture was incubated at 22° C. for 1 h and then the luminescence measured with a suitable measurement instrument (e.g. Viewlux from Perkin-Elmer). […]

T1 sequence (P48729 whole entry, canonical isoform): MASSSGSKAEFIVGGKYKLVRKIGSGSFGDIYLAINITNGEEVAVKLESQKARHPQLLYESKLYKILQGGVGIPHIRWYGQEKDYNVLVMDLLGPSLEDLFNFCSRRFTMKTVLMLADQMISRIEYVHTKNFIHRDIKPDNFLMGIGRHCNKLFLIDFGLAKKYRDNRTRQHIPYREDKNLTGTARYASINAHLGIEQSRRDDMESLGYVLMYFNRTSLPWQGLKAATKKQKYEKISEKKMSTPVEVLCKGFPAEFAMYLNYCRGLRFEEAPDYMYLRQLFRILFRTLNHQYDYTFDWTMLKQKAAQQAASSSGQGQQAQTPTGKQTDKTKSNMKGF
Casein kinase I isoform delta, sequence (P48730 whole entry, canonical isoform): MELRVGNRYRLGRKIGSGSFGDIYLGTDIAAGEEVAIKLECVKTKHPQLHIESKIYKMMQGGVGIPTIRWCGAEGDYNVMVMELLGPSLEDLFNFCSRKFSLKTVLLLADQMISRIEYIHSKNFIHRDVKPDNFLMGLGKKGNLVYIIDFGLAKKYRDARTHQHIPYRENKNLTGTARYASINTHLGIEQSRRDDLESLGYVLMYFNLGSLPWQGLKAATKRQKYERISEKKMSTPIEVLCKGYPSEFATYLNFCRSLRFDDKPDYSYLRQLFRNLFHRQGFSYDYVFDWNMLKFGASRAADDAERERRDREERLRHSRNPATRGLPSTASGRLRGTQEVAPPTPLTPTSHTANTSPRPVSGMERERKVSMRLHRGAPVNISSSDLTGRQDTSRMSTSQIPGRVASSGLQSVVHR

Row | SMILES | IC50 [1] | IC50 [2] | IC50 [3]
1 | CC(=O)Nc1cc(-c2[nH]c3c(c2Nc2ccccc2)C(=O)N(C)CC3)ccn1 | 11 nM | – | –
2 | CC1CN(C)C(=O)c2c1[nH]c(-c1ccnc(NC(=O)C(CC(F)F)c3ccc(F)cc3)c1)c2Nc1ccccc1 (mixture of isomers) [US20230365554, Example 10] | 5.4 nM | 9.1 nM | –
3 | CN1CCc2[nH]c(-c3ccnc(NC(=O)[C@@H]4C[C@H]4F)c3)c(Nc3ccccc3)c2C1=O (relative stereo) [WO 2016/120196, Example 25] | – | – | 63 nM
4 | Cc1cn(C)c(=O)c2c(Nc3ccccc3)c(-c3ccnc(NC(=O)Cc4ccc(F)cc4)c3)[nH]c12 [US20230365554, Example 38] | 4.2 nM | 6.6 nM | –
